Assay [1] relates to human keratinocytes. The assay is described as follows: Measurement of mitochondrial membrane potential (JC-1 flow cytometry; TMRM/PMPI). It is filed as cell-based. As for the experimental part:
Measurement of Mitochondrial Membrane Potential. Mitochondrial membrane potential changes were assessed by two different techniques, a) using the lipophilic cationic dye JC-1 (MitoProbe JC-1 Assay Kit for Flow Cytometry, Life technologies) per manufacturer's instruction by flow cytometer. Mitochondrial membrane potential was also evaluated b) using TMRM/PMPI after 48 hours of control/[…] mimic transfection. The images were captured by confocal microscope and the quantification of fluorescent intensity was measured using FV1000 software (Olympus, Tokyo, Japan).

Assay [2] relates to human keratinocytes. The assay is described as follows: Respirometry assay (OCR, XF-96 Seahorse). It is filed as cell-based. As to conditions: 20 μM, 24 h, vs vehicle control. As for the experimental part:
Respirometry Assay. The Oxygen Consumption Rate (OCR) measurements were performed using a Seahorse Bioscience XF-96 instrument. A day prior to the experiment, the sensor cartridge was hydrated overnight using the calibration buffer supplied by the manufacturer. The transfected cells were seeded in the 96 well microplate supplied by the company. On the day of the experiment, the cells were washed with the calibrant buffer twice and incubated with glucose free DMEM for 2 h at 37° C. in a CO2 free incubator. The injection ports of the sensors were filled with 20 μL of treatment or vehicle in buffer. The sensor was then placed into the XF-96 instrument and calibrated. After calibration, the calibration fluid plate was replaced with the cell plate. The measurement cycle consisted of a 2 min mix, 1 min wait, and a 2 min measurement. Four basal rate measurements were followed with injections and each injection is followed by four measurement cycles. The consumption rates were calculated from the continuous average slope of the O2 decreases using a compartmentalization model. For any one treatment, the rates from 10 wells were used. Rates for the wells were normalized for protein content. All average rates were normalized to the vehicle control basal and t-tests between control and treatment were used to assess statistical significance.

The test system of another assay is BAX. The assay is described as follows: Western blot analysis of BAX in human keratinocytes. In kind it is cell-based. Particulars: 20 μM, 24 h. The protocol:
Western Blot Analysis. Immunoblotting was performed using HaCaT cell and wound tissue lysates. After protein extraction, the protein concentration was determined by BCA protein assay as described earlier. The samples (10-20 μg of protein/lane) were separated on a 4-12% SDS polyacrylamide gel electrophoresis and probed with rabbit polyclonal anti-notch1 […] antibody (1:1000 dilution, Abcam, Cambridge, Mass.), rabbit polyclonal anti-BAX antibody (1:1000 dilution, Abcam, Cambridge, Mass.), HRP conjugated anti-GAPDH (1:10,000 dilution). Bands were visualized by horseradish peroxidase-conjugated anti-rabbit-IgG raised in donkey and horseradish peroxidase-conjugated anti-mouse-IgG raised in sheep (Amersham Biosciences, Piscataway, N.J.) at 1:2,000 dilution and the enhanced chemiluminescence assay (Amersham Biosciences, Piscataway, N.J.).
For orientation: Immunoblotting shows a protein as a band on a membrane.

For another assay, the system named is breast cancer stem cells. Particulars: phase I trial; cited from earlier work.

With `O=C(O)CC[C@H]1CC[C@@](c2cc(F)ccc2F)(S(=O)(=O)c2ccc(Cl)cc2)CC1` [MK-0752], the “JC-1 green fluorescence (compromised ΔΨ)” value in the assay with human keratinocytes [1] (JC-1, 20 μM, 24 h) is recorded as “significant increase in JC-1 green fluorescence”. Moreover, the TMRM fluorescence entry in the assay with human keratinocytes [1] (TMRM and PMPI staining, 20 μM, 24 h) is “significant decrease in TMRM fluorescence”. In the assay with human keratinocytes [1] (studies using TMRM and PMPI), the “mitochondrial membrane potential (ΔΨ)” value was “lowered ΔΨ”. Further, in the assay on human keratinocytes [2], the ATP production entry was “significant decrease”, the basal respiration entry was “significant decrease” and the “rate of oxygen consumption” value was “decreased rate of oxygen consumption”. In addition, in the assay with BAX, the BAX dimerization result was “caused BAX dimerization”. In addition, the “breast cancer stem cells” value with breast cancer stem cells was “reduction of breast cancer stem cells”.

These data come from US20230092762A1, “THERAPEUTIC DELIVERY OF LOCKED NUCLEIC ACID CONJUGATED ANTISENSE MIR-1” (THE TRUSTEES OF INDIANA UNIVERSITY, priority 2020, published 2023).
